From ChEMBL document CHEMBL3860026, “Depsidones from Lichens as Natural Product Inhibitors of M-Phase Phosphoprotein 1, a Human Kinesin Required for Cytokinesis” (J Nat Prod, 2016)
Values after ≈ are worked out from the molar mass of the structure shown.

Key:
[1] = Intrinsic clearance in human liver microsomes assessed per mg of protein at 3 uM after 5 to 60 mins by LC-MS/MS method; format: ADME; conditions: read-out: CLH
[2] = molecular target: T1, Kinesin-like protein KIF9 (Homo sapiens) (UniProt Q9HAQ2); assay: Inhibition of microtubule-stimulated ATPase activity of human Kif9 at 200 uM by pyruvate kinase/lactate dehydrogenase-linked assay
T1 sequence (whole entry): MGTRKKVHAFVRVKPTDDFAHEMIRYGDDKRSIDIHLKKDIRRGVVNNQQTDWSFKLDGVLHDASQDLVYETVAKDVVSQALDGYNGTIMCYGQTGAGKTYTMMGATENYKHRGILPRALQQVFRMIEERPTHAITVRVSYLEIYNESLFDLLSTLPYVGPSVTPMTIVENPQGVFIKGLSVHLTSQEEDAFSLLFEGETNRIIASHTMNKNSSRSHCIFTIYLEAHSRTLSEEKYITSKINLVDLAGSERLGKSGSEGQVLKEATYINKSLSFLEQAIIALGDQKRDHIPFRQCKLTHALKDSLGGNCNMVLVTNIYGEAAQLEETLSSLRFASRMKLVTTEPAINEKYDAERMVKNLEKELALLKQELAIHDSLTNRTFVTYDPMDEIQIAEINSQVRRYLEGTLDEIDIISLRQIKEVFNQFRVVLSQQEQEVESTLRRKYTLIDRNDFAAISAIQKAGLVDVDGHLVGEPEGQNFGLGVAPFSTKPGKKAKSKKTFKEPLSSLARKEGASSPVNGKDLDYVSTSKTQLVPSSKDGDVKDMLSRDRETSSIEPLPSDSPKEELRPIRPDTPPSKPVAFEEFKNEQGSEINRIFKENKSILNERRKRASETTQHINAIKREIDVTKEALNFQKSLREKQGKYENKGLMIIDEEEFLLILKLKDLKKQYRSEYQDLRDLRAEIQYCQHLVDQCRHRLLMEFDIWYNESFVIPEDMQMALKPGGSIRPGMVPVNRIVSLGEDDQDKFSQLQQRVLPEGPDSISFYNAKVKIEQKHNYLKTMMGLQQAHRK

[3] = Half life in human liver microsomes at 3 uM by LC-MS/MS method; format: ADME
[4] = molecular target: Centromere-associated protein E (Homo sapiens, UniProt Q02224); assay: Inhibition of microtubule-stimulated ATPase activity of human CENP-E by pyruvate kinase/lactate dehydrogenase-linked assay
[5] = Cytotoxicity against human J82 cells assessed as growth inhibition after 72 hrs by Alamar Blue assay; format: functional, cell-based; conditions: J82, 72 h
[6] = molecular target: T2, Kinesin-like protein KIF23 (Homo sapiens) (UniProt Q02241); assay: Inhibition of microtubule-stimulated ATPase activity of human MKLP-1 at 200 uM by pyruvate kinase/lactate dehydrogenase-linked assay
T2 sequence (whole entry): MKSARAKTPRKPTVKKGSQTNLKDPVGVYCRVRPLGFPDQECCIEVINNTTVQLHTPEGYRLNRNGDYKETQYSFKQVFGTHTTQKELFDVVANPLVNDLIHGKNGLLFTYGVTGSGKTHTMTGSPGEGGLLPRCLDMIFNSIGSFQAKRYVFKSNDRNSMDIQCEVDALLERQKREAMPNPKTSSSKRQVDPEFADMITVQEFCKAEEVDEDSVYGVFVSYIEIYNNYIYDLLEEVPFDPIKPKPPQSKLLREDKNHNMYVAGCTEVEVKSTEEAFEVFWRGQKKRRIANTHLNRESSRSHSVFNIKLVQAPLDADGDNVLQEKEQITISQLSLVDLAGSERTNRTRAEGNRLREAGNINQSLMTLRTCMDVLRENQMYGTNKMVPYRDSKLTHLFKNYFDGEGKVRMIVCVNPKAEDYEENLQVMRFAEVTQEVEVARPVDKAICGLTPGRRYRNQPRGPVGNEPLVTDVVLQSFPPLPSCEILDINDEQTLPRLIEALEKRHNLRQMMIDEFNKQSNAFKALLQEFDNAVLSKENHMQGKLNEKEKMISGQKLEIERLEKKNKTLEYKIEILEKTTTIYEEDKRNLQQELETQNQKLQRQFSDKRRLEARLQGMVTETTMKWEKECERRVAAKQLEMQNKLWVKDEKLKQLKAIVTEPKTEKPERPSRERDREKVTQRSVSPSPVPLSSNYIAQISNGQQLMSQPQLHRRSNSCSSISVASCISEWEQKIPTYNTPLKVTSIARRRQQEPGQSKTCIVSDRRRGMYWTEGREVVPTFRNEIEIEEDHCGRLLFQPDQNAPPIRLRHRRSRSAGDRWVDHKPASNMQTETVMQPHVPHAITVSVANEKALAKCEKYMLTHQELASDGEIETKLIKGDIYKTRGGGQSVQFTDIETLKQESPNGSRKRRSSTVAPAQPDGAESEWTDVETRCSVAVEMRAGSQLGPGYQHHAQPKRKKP

[7] = Solubility of the compound in phosphate buffered saline at pH 2 after 2 hrs by turbidimetric method; format: physicochemical
[8] = Chemical stability of the compound at 5 uM after 15 to 120 mins by LC-MS/MS method; format: physicochemical
[9] = Cytotoxicity against human HCT116 cells assessed as growth inhibition after 72 hrs by Alamar Blue assay; format: functional, cell-based; conditions: HCT-116, 72 h
[10] = molecular target: T3, Kinesin-like protein KIF3B (Homo sapiens) (UniProt O15066); assay: Inhibition of microtubule-stimulated ATPase activity of human Kif3B at 200 uM by pyruvate kinase/lactate dehydrogenase-linked assay
T3 sequence (whole entry): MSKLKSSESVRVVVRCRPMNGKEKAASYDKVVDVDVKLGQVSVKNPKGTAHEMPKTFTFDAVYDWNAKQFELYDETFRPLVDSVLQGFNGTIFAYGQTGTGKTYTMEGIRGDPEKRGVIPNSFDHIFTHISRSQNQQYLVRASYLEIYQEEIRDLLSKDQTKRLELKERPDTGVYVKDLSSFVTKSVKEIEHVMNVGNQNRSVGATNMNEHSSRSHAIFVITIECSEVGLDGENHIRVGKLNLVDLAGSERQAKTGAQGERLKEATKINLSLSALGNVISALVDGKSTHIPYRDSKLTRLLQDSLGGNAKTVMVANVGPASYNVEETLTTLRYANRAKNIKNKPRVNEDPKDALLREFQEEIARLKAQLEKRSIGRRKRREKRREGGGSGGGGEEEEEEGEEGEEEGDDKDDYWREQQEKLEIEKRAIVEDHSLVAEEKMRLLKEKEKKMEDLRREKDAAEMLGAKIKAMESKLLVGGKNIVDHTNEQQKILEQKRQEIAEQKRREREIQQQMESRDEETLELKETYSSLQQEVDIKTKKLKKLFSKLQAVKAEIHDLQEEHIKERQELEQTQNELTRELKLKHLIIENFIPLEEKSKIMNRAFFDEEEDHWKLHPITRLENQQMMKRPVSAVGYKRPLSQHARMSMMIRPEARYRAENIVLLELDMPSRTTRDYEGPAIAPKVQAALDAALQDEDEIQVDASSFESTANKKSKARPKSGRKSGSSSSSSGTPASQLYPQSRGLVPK

Chain of Centromere-associated protein E (Q02224 whole entry): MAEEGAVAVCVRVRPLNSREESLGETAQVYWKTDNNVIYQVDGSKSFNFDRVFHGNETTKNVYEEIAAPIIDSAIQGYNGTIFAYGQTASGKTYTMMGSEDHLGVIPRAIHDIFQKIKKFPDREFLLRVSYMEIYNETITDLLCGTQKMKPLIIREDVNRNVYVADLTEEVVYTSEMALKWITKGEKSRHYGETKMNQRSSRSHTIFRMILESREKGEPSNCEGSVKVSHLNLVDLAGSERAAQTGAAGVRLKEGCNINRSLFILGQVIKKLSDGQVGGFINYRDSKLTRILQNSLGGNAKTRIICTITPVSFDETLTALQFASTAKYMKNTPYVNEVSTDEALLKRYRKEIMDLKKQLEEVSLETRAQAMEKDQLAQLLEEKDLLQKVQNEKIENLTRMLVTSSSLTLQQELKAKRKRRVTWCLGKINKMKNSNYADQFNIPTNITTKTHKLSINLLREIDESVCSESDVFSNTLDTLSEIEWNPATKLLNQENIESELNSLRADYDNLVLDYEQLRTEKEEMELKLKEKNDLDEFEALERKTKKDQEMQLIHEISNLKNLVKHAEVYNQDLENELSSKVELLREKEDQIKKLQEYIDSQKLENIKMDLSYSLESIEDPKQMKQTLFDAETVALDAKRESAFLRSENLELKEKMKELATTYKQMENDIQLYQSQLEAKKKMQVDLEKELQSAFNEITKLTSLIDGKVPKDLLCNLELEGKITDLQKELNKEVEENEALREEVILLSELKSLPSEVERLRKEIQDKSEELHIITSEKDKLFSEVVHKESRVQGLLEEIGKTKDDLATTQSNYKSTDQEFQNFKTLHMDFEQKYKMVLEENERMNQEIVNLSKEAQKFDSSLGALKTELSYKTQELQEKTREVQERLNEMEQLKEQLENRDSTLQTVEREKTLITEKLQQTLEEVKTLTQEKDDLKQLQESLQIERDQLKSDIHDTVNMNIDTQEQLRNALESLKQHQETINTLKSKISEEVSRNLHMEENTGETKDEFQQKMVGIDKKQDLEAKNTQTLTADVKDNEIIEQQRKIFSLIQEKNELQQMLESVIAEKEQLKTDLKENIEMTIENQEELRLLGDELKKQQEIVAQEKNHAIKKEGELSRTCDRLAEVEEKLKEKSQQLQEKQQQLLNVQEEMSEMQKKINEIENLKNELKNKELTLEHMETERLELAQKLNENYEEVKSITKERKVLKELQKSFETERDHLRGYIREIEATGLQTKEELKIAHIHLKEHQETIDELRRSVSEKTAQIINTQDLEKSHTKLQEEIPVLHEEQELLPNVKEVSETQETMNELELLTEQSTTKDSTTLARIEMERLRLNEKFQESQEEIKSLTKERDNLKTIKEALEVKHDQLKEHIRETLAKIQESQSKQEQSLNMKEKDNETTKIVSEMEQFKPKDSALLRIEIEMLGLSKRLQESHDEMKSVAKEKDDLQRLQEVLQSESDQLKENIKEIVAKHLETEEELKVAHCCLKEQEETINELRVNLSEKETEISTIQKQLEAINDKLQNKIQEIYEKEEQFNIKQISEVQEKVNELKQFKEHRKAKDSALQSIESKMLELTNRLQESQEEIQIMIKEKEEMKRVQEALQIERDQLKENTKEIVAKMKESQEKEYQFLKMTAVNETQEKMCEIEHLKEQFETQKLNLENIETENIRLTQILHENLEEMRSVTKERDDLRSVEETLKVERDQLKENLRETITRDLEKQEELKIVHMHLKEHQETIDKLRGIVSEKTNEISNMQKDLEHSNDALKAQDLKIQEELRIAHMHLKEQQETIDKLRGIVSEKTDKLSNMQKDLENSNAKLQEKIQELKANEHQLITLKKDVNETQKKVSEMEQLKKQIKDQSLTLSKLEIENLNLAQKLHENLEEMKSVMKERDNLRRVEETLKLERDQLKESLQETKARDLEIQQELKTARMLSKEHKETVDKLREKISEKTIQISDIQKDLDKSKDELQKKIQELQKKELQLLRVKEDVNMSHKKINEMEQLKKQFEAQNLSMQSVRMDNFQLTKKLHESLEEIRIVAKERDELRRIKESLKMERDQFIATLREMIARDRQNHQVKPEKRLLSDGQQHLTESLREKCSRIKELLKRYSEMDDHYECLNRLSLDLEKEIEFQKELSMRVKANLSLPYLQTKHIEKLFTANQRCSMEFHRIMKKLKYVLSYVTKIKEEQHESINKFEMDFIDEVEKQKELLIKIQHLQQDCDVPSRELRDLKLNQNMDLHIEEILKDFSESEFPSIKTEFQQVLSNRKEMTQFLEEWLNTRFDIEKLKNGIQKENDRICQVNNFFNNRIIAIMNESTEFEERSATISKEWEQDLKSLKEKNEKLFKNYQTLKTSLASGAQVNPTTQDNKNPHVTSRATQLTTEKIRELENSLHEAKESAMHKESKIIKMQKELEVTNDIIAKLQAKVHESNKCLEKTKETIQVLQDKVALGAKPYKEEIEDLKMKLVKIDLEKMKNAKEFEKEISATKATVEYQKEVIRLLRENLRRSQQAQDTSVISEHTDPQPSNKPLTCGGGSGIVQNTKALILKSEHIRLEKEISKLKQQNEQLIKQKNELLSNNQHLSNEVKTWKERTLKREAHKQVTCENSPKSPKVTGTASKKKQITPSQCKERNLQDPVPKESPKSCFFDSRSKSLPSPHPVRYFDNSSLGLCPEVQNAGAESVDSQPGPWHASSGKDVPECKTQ

`CCCCCC(=O)Cc1cc(O)cc2c1C(=O)Oc1cc(O)c(C(=O)O)c(CCCCC)c1O2` [PHYSODIC ACID] gave a microsomal CLint at 3 µM [1] of 310 µL/min/mg, an inhibition [2] of 50% and a half-life at 3 µM [3] of 4.5 min. For the same compound, the IC50 [4] was 91.4 µM, the EC50 [5] was 38.2 µM and the inhibition [6] was 40%. For the same compound, the solubility kinetic at 2 h [7] was 3.75 µM (≈ 1.76 µg/mL), the Stability [8] was “Stable” and the EC50 [9] was greater than 50 µM. It also gave an inhibition [10] of 40%.
